For 1 molecule, Triple point temperature results are on record in the NIST ThermoML archive (doi:10.1016/j.jct.2011.07.011).

“And” between values parts separate entries of the source, which are not always exact repeats. Equal entries are not always repeated. ± gives the expanded uncertainty stated by the source.

The conditions of this series: Crystal; Heating/Cooling curves.

Take `[Ne]` [neon]: the Triple point temperature is 24.54 ± 0.077 K and 24.69 ± 0.077 K.
